In patent US10173981B2, “Picolinamides as fungicides” (DOW AGROSCIENCES LLC, priority 2014, dated 2019):
Where two headings read alike, the source gives them in different places.

How the values were obtained:
Type in all cases: in vivo
Zymoseptoria tritici = experiment: Fungicidal activity: leaf blotch of wheat (SEPTTR), wheat seedlings; conditions: for pest or weed control at 100 ppm: High volume, wheat; for pest or weed control at 121.5 g/ha: Low Volume Cereal Activity at 121.5 g/Ha
Experimental: (§1) All fungicides were evaluated using the aforementioned method for their activity vs. all target diseases, unless stated otherwise. Wheat leaf blotch and brown rust activity were also evaluated using track spray applications, in which case the fungicides were formulated as EC formulations, containing 0.1% Trycol 5941 in the spray solutions. Wheat plants (variety Yuma) were grown from seed in a greenhouse in 50% mineral soil/50% soil-less Metro mix until the first leaf was fully emerged, with 7-10 seedlings per pot. These plants were inoculated with an aqueous spore suspension of Zymoseptoria tritici either prior to or after fungicide treatments. After inoculation the plants were kept in 100% relative humidity (one day in a dark dew chamber followed by two to three days in a lighted dew chamber at 20° C.) to permit spores to germinate and infect the leaf. The plants were then transferred to a greenhouse set at 20° C. for disease to develop. When disease symptoms were fully expressed on the 1st leaves of untreated plants, infection levels were assessed on a scale of 0 to 100 percent disease severity. Percent disease control was calculated using the ratio of disease severity on treated plants relative to untreated plants.

Puccinia triticina = experiment: Fungicidal activity: wheat brown rust (PUCCRT), wheat seedlings; conditions: for pest or weed control at 100 ppm: High volume, wheat; for pest or weed control at 121.5 g/ha: Low Volume Cereal Activity at 121.5 g/Ha
Experimental: as §1, with “plants. Example B: Evaluation of Fungicidal Activity: Wheat Brown Rust (Puccinia triticina; Synonym: Puccinia recondita f. sp. tritici; Bayer code PUCCRT) Wheat plants (variety Yuma) were grown from seed in a greenhouse in 50% mineral soil/50% soil-less Metro mix until the first leaf was fully emerged, with 7-10 seedlings per pot. These plants were inoculated with an aqueous spore suspension of Puccinia triticina either prior to or after fungicide treatments. […] The plants were then transferred to a greenhouse set at 24° C. for disease to develop. Fungicide formulation, application and disease assessment followed the procedures as described in the Example A.” for “plants.”

Cercospora beticola = experiment: Fungicidal activity: leaf spot of sugar beets (CERCBE); conditions: 1DP, high volume, sugar beet, read-out: CERCBE (% control rating)
Venturia inaequalis = experiment: Fungicidal activity: apple scab (VENTIN), apple seedlings; conditions: 1DP, high volume, read-out: VENTIN (% control rating)
Phakopsora pachyrhizi = experiment: Fungicidal activity: Asian soybean rust (PHAKPA), soybean seedlings; conditions: High volume; for pest or weed control at 25 ppm: Phakopsora pachyrhizi
Pyricularia oryzae = experiment: whole plant or invertebrate; conditions: read-out: PYRIOR (% control rating)
Leptosphaeria nodorum = experiment: Fungicidal activity: wheat glume blotch (LEPTNO), wheat seedlings; conditions: Parastagonospora nodorum, 1DP, high volume, read-out: LEPTNO (% control rating)
[1] = test system: Colletotrichum lagenarium; experiment: Fungicidal activity: cucumber anthracnose (COLLLA), cucumber seedlings; conditions: Colletotrichum orbiculare, 1DP, high volume, read-out: COLLLA (% control rating)
Alternaria solani = experiment: Fungicidal activity: tomato early blight (ALTESO), tomato plants; conditions: 1DP, high volume, read-out: ALTESO (% control rating)
Rhyncosporium secalis = experiment: Fungicidal activity: barley scald (RHYNSE), barley seedlings; conditions: Hordeum vulgare, 1DP, high volume, read-out: RHYNSE (% control rating)
[2] = 24 h, 1 Day Protectant, read-out: SEPTTR 1 DP (Wheat Leaf Blotch, 1 Day Protectant)
[3] = 72 h, 3 Day Curative, read-out: SEPTTR 3 DC (Wheat Leaf Blotch, 3 Day Curative)
[4] = 24 h, 1 Day Protectant, read-out: PUCCRT 1 DP (Wheat Brown Rust, 1 Day Protectant)
[5] = 72 h, 3 Day Curative, read-out: PUCCRT 3 DC (Wheat Brown Rust, 3 Day Curative)
[6] = 24 h, 1 day protectant, read-out: PHAKPA 1 DP (% control rating)
[7] = 72 h, 3 day curative, read-out: PHAKPA 3 DC (% control rating)

COc1cc(F)ccc1[C@@H](Oc1ccccc1)[C@H](C)OC(=O)[C@H](C)NC(=O)c1nccc(OC)c1O [Example 178]
pest or weed control at 100 ppm (Zymoseptoria tritici; 24 h, 1 day protectant, read-out: SEPTTR 1 DP (% control rating)): > 80% | pest or weed control at 100 ppm (Zymoseptoria tritici; 72 h, 3 day curative, read-out: SEPTTR 3 DC (% control rating)): > 80% | pest or weed control at 100 ppm (Puccinia triticina; 24 h, 1 day protectant, read-out: PUCCRT 1 DP (% control rating)): > 80% | pest or weed control at 100 ppm (Puccinia triticina; 72 h, 3 day curative, read-out: PUCCRT 3 DC (% control rating)): < 80%

COc1ccnc(C(=O)N[C@@H](C)C(=O)O[C@@H](C)C(Oc2ccc(F)cc2)c2ccc(F)cc2)c1OC(C)=O (stereo partly shown) [Example 236]
pest or weed control at 121.5 g/ha (Zymoseptoria tritici; [2]): > 80% | pest or weed control at 121.5 g/ha (Zymoseptoria tritici; [3]): > 80% | pest or weed control at 100 ppm (Cercospora beticola): > 80% | pest or weed control at 121.5 g/ha (Puccinia triticina; [4]): > 80% | pest or weed control at 121.5 g/ha (Puccinia triticina; [5]): > 80% | pest or weed control at 100 ppm (Venturia inaequalis): > 80% | pest or weed control at 25 ppm (Phakopsora pachyrhizi; [6]): > 80% | pest or weed control at 25 ppm (Phakopsora pachyrhizi; [7]): < 0% | pest or weed control at 100 ppm (Pyricularia oryzae): > 80% | pest or weed control at 100 ppm (Leptosphaeria nodorum): > 80% | pest or weed control at 100 ppm [1]: < 80% | pest or weed control at 100 ppm (Alternaria solani): < 80% | pest or weed control at 100 ppm (Rhyncosporium secalis): > 80%

COc1cc(C)ccc1[C@@H](Oc1ccccc1)[C@H](C)OC(=O)[C@H](C)NC(=O)c1nccc(OC)c1OC(C)=O [Example 269]
pest or weed control at 121.5 g/ha (Zymoseptoria tritici; [2]): > 80% | pest or weed control at 121.5 g/ha (Zymoseptoria tritici; [3]): > 80% | pest or weed control at 121.5 g/ha (Puccinia triticina; [4]): > 80% | pest or weed control at 121.5 g/ha (Puccinia triticina; [5]): > 80% | pest or weed control at 25 ppm (Phakopsora pachyrhizi; [6]): > 80% | pest or weed control at 25 ppm (Phakopsora pachyrhizi; [7]): < 80%

COc1cc(F)ccc1[C@@H](Oc1ccccc1)[C@H](C)OC(=O)[C@H](C)NC(=O)c1nccc(OC)c1OC(C)=O [Example 270]
PHAKPA 1 DP (% control rating) (Phakopsora pachyrhizi; 25 ppm, 1 day protectant): B (≤80) | PHAKPA 3 DC (% control rating) (Phakopsora pachyrhizi; 25 ppm, 3 day curative): D (≤0)
